Data: the supplement of paper PMC10627819

Columns and labels:
Assay in all cases: Bliss interaction score (quartile over a dose matrix) (fitness difference); higher = more antagonism (negative = synergy)
[1] = tested on: S. aureus DSM 20231
Method in brief: (§1)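 The Bliss score is observed fitness minus expected fitness, where the expected value is the product of single-drug fitness values inferred from combination data. Fitness is OD595 at entry into stationary phase normalised to the plate's robust no-drug mean and capped at 1. Scores are reported as quartiles spanning technical, biological and donor/recipient replicates.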

[2] = tested on: B. subtilis 168
Method in brief: as §1

[3] = tested on: S. pneumoniae D39V
Method in brief: as §1

[4] = tested on: S. aureus Newman
Method in brief: as §1
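Further: first quartile when negative (synergy) and third quartile when positive (antagonism).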

| Compound | Bliss interaction score [1] | Bliss interaction score [2] | Bliss interaction score [3] | Bliss interaction score [4] | Bliss interaction score ([1]; main component drawn) | Bliss interaction score ([2]; main component drawn) | Bliss interaction score ([3]; main component drawn) | Bliss interaction score ([4]; main component drawn) |
| --- | --- | --- | --- | --- | --- | --- | --- | --- |
| COc1c(N2C[C@@H]3CCCN[C@@H]3C2)c(F)cc2c(=O)c(C(=O)O)cn(C3CC3)c12 [Moxifloxacin] + C/C(=C\C(=O)OCCCCCCCCC(=O)O)C[C@@H]1OC[C@H](C[C@@H]2O[C@H]2[C@@H](C)[C@H](C)O)[C@@H](O)[C@H]1O [Pseudomonic acid] | -0.019 | 0.0399 | 0.072 | 0.0227 |  |  |  |  |
| C[C@@H](O)[C@H]1C(=O)N2C(C(=O)O)=C(SCCNC=N)C[C@H]12 [Imipenem] + CC[C@H]1OC(=O)[C@H](C)C(=O)[C@H](C)[C@@H](O[C@@H]2O[C@H](C)C[C@H](N(C)C)[C@H]2O)[C@](C)(OC)C[C@@H](C)C(=O)[C@H](C)[C@H]2N(CCCCn3cnc(-c4cccnc4)c3)C(=O)O[C@]12C [Telithromycin] | -0.0311 | 0.0561 | 0.0906 | -0.0123 |  |  |  |  |
| COc1c(N2C[C@@H]3CCCN[C@@H]3C2)c(F)cc2c(=O)c(C(=O)O)cn(C3CC3)c12 [Moxifloxacin] + CN[C@H](CC(C)C)C(=O)N[C@H]1C(=O)N[C@@H](CC(N)=O)C(=O)N[C@H]2C(=O)N[C@H]3C(=O)N[C@H](C(=O)N[C@H](C(=O)O)c4cc(O)cc(O)c4-c4cc3ccc4O)[C@H](O[C@H]3C[C@](C)(N)[C@@H](O)[C@H](C)O3)c3ccc(c(Cl)c3)Oc3cc2cc(c3O[C@@H]2O[C@H](CO)[C@@H](O)[C@H](O)[C@H]2O[C@H]2C[C@](C)(NCc3ccc(-c4ccc(Cl)cc4)cc3)[C@@H](O)[C@H](C)O2)Oc2ccc(cc2Cl)[C@H]1O [Oritavancin] | -0.0425 | 0.024 | -0.052 | 0.0436 |  |  |  |  |
| N[C@@H]1CONC1=O [CycloserineD] + C[C@H]1c2cccc(O)c2C(=O)C2=C(O)[C@]3(O)C(=O)C(C(N)=O)=C(O)[C@@H](N(C)C)[C@@H]3[C@@H](O)[C@@H]21 [Doxycycline] | -0.116 | 0.0526 | 0.243 | -0.0254 |  |  |  |  |
| CC(=O)OC[C@H]1O[C@@H]([S-])[C@H](OC(C)=O)[C@@H](OC(C)=O)[C@@H]1OC(C)=O.CCP(CC)CC.[Au+] [Auranofin] + Clc1ccc(COC(Cn2ccnc2)c2ccc(Cl)cc2Cl)c(Cl)c1 [Miconazole] | -0.0279 | 0.0318 | 0.086 | 0.0208 |  |  |  |  |
| CC(=O)OC[C@H]1O[C@@H]([S-])[C@H](OC(C)=O)[C@@H](OC(C)=O)[C@@H]1OC(C)=O.CCP(CC)CC.[Au+] [Auranofin] + CC(C1CCC(C(O1)OC2C(CC(C(C2O)OC3C(C(C(CO3)(C)O)NC)O)N)N)N)NC [Gentamicin] |  |  |  |  | 0.0359 | -0.0544 | -0.0834 | 0.0898 |
| CC[C@H]1OC(=O)[C@H](C)[C@@H](O[C@H]2C[C@@](C)(OC)[C@@H](O)[C@H](C)O2)[C@H](C)[C@@H](O[C@@H]2O[C@H](C)C[C@H](N(C)C)[C@H]2O)[C@](C)(OC)C[C@@H](C)C(=O)[C@H](C)[C@@H](O)[C@]1(C)O [Clarithromycin] + O=C(O)[C@H]1/C(=C/CO)O[C@@H]2CC(=O)N21 [Clavulanic] | -0.212 | 0.047 | -0.059 | 0.277 |  |  |  |  |
| N[C@@H]1CONC1=O [CycloserineD] + CN1C2=CC=CC=C2N=C3C1=CC=CC3=O [Pyocyanin] | 0.0676 | -0.0572 | 0.201 | -0.0546 |  |  |  |  |
| CC(=O)O[C@H]1C[C@@]2(C)[C@@H](C[C@@H](O)[C@H]3[C@@]4(C)CC[C@@H](O)[C@@H](C)[C@@H]4CC[C@@]32C)/C1=C(\CCC=C(C)C)C(=O)O [Fusidic acid] + CN[C@H](CC(C)C)C(=O)N[C@H]1C(=O)N[C@@H](CC(N)=O)C(=O)N[C@H]2C(=O)N[C@H]3C(=O)N[C@H](C(=O)N[C@H](C(=O)O)c4cc(O)cc(O)c4-c4cc3ccc4O)[C@H](O)c3ccc(c(Cl)c3)Oc3cc2cc(c3O[C@@H]2O[C@H](CO)[C@@H](O)[C@H](O)[C@H]2O[C@H]2C[C@](C)(N)[C@H](O)[C@H](C)O2)Oc2ccc(cc2Cl)[C@H]1O [Vancomycin] | 0.0205 | -0.0397 | 0.0729 | -0.0305 |  |  |  |  |
| C[C@@H](O)[C@H]1C(=O)N2C(C(=O)O)=C(SCCNC=N)C[C@H]12 [Imipenem] + COc1cc(Cc2cnc(N)nc2N)cc(OC)c1OC [Trimethoprim] | -0.0457 | -0.127 | 0.153 | -0.0308 |  |  |  |  |
| N[C@@H]1CONC1=O [CycloserineD] + CC(=O)O[C@H]1C[C@@]2(C)[C@@H](C[C@@H](O)[C@H]3[C@@]4(C)CC[C@@H](O)[C@@H](C)[C@@H]4CC[C@@]32C)/C1=C(\CCC=C(C)C)C(=O)O [Fusidic acid] | 0.0576 | 0.0616 | 0.211 | -0.0418 |  |  |  |  |
| O=C(N[C@H](CO)[C@H](O)c1ccc([N+](=O)[O-])cc1)C(Cl)Cl [Chloramphenicol] + C[C@H]1c2cccc(O)c2C(=O)C2=C(O)[C@]3(O)C(=O)C(C(N)=O)=C(O)[C@@H](N(C)C)[C@@H]3[C@@H](O)[C@@H]21 [Doxycycline] | 0.0395 | -0.0915 | -0.06 | 0.0197 |  |  |  |  |
| CC(=O)OC[C@H]1O[C@@H]([S-])[C@H](OC(C)=O)[C@@H](OC(C)=O)[C@@H]1OC(C)=O.CCP(CC)CC.[Au+] [Auranofin] + CO/N=C(\C(=O)N[C@@H]1C(=O)N2C(C(=O)[O-])=C(C[N+]3(C)CCCC3)CS[C@H]12)c1csc(N)n1 [Cefepime] | 0.0512 | 0.046 | 0.114 | 0.0786 |  |  |  |  |
